Source: patent US20060078499A1, “Use of hedgehog agonist to treat depression” (priority 2003, published 2006)

Assays:
129/SvEv mice = experiment: Novelty-suppressed feeding test (NSF); assay type: in vivo, mouse
Protocol: The Novelty-suppressed feeding test was carried out during a 5-min period as previously described (Santarelli et al., 2001). Briefly, the testing apparatus consisted of a plastic box, 50×50×20 cm. The floor was covered with approximately 2 cm of wooden bedding. Twenty-four hours prior to behavioral testing, all food was removed from the home cage. At the time of testing, a single pellet of food (regular chow) was placed on a white paper platform positioned in the center of the box. An animal was placed in a corner of the maze and a stopwatch was immediately started. The measure of interest (chewing) was scored when the mouse was sitting on its haunches and biting with the use of forepaws. Immediately after this test, mice were transferred to their home cage and the amount of food consumed in 5 min was measured (home cage food consumption). […] Mice were always tested during the light period.
The NSF is a conflict test in which food-deprived animals are presented with a food pellet placed in the center of a brightly-lit open field. This paradigm elicits competing motivations: the drive to eat the food pellet, and the fear of venturing into the center of the arena.
Haloperidol, an antipsychotic that antagonizes D2 dopamine receptors, was used as a negative control because it is devoid of antidepressant activity in humans. NSF performance was assessed after either 5 or 28 days of oral drug administration.

[1] = system: BrdU-positive cells in the dentate gyrus; experiment: BrdU labeling of cell proliferation, sacrifice 24 hr after BrdU; assay type: in vivo, mouse; details: for cell proliferation (BrdU-labeled cells in the SGZ): 1 mg/kg/day mini pumps; for BrdU-labeled cells in dentate gyrus: 27 days of treatment, 24 hours after BrdU
Protocol: (§1) To assess the effect of antidepressant or X-irradiation treatments on the number of BrdU-positive cells, mice were administered BrdU (4×75 mg/kg i.p., dissolved in saline, every 2 hr; Roche Diagnostic, Indianapolis, Ind.) and sacrificed 24 hr after the last BrdU injection (FIG. 2A, 3B, 5C-D). To determine cell survival and phenotype after the various antidepressant treatments, fluoxetine, imipramine and vehicle-treated mice were allowed to survive for 28 days after the last BrdU injection (FIG. 2C-D, 3C). After deep anesthesia with a mixture of ketamine/xylazine (100 mg/kg and 7 mg/kg respectively), mice were transcardially perfused (cold saline for 2 min, followed by 4% cold paraformaldehyde/0.1 M phosphate buffer for 5 min) and brains were collected for immunohistochemistry. All brains were post-fixed overnight in 4% paraformaldehyde at 4° C., then cryoprotected in 30% sucrose and stored at 4° C. Serial sections of the brains were cut (35 μm sections) through the entire hippocampus (plates 41-61; Franklin and Paxinos, 1997) on a cryostat and stored in PBS with 0.1% NaN3. For DAB staining, sections were slide-mounted and boiled in citric acid, pH 6.0, for 5 min, rinsed with PBS, and treated with 0.01% trypsin in Tris/CaCl2 for 10 min. Brain sections were incubated for 30 min with 2N HCl and blocked with 5% NGS (Jackson ImmunoResearch, West Grove, Pa.). Sections were then incubated over night at room temperature with anti-mouse BrdU (1:100; Becton-Dickinson). After washing with PBS, sections were incubated for 1 hr with secondary antibody (1:200 biotinylated goat anti-mouse; Sigma-Aldrich, St. Louis, Mo.) followed by amplification with an avidin-biotin complex (Vector Laboratories). The staining was visualized with DAB (Sigma-Aldrich, St. Louis, Mo.). For fluorescent double-labeling, the DNA-denaturation procedure consisted of the following steps: 2 hr incubation in 50% formamide-2×SSC at 65° C., 5 min rinse in 2×SSC, 30 min incubation in 2N HCl at 37° C., and 10 min rinse in 0.1 M boric acid, pH 8.5. Sections were then incubated in TBS-0.1% Triton X-100 (Tx)-5% normal donkey serum (NDS) for 30 min, followed by anti-rat BrdU primary antibody (1:100; Accurate Westbury, N.Y. or Serotec, Oxford, UK) in TBS/NDS/Tx for 24 hrs at 4° C. in combination with either a mouse monoclonal antibody to NeuN (1:500; Chemicon, Temecula, Calif.) or a rabbit polyclonal antibody to GFAP (1:800; DAKO, Carpinteria, Calif.). The fluorescent secondary antibodies used were biotin-conjugated donkey anti-rat (1:200) plus streptavidin Cy2 (1:200), donkey anti-mouse Cy3 (1:500), or donkey anti-rabbit Cy3 (1:500) (Jackson ImmunoResearch, West Grove, Pa.). Fluorescent images were taken with a Bio-Rad MRC 1000 confocal laser scanning system coupled to a Zeiss Axiovert 100 inverted microscope. For each image acquisition, a Kalman average of five frames was used. For quantification of BrdU/NeuN or BrdU/GFAP double-labeled cells, at least 50 BrdU-positive cells per animal were analyzed using Z-plane sectioning (1 μm steps).
It has recently been shown that various antidepressant treatments, including fluoxetine, increase neurogenesis in the dentate gyrus (DG) of the rat hippocampus (Malberg et al., 2000). […] To confirm that chronic fluoxetine induces changes in the number of BrdU-positive cells in the DG, we treated adult mice with either vehicle or fluoxetine for 5, 11 or 28 days. On the final day of treatment, all animals were injected with BrdU (four injections of 75 mg/kg), sacrificed 24 hours later, and perfused for immunohistochemistry. The treatment with fluoxetine caused a 60% increase in the number of BrdU positive cells in the DG of animals after either 11 or 28 days, but had no effect in animals treated for 5 days (FIGS. 2A and B).
(§2) In this set of experiments, wild type and 5-HT1A receptor KO mice were injected with BrdU following 27 days of treatment with fluoxetine, imipramine, or vehicle. […]

[2] = 129/SvEv, mouse, in vivo, po
Protocol: Fluoxetine (Eli Lilly, Indianapolis, Ind.), Imipramine (Sigma-Aldrich, St. Louis, Mo.), Desipramine (Sigma-Aldrich, St. Louis, Mo.) and Haloperidol (Sigma-Aldrich, St. Louis, Mo.) were dissolved in tap water at a concentration of 80, 160, 160, and 8 mg/L, respectively. These concentration were established based on the average drinking amount and average weight of the mice used in the study to achieve a final dose of 10 (fluoxetine), 20 (imipramine and desipramine) and 1 (haloperidol) mg/kg/day. […] Vehicle animals received tap water. 8-hydroxy-2-(di-n-propylamino) tetralin (8-OH-DPAT, Sigma-Aldrich, St. Louis, Mo.) was dissolved in sterile saline (0.9% NaCl) at a concentration of 4.5 mg/ml, and delivered through Alzet osmotic mini-pumps (model 2004, Alzet, Cupertino, Calif.) implanted subcutaneously 28 days prior to behavioral testing. The final average dose delivered was 1 mg/kg/day. Sham mice were implanted with mini-pumps containing sterile saline.

[3] = system: BrdU-positive cells in the dentate gyrus; experiment: BrdU labeling of cell proliferation, sacrifice 24 hr after BrdU; assay type: in vivo, mouse; details: chronic treatment
BALB/c mice = experiment: Chronic unpredictable stress paradigm (CUS); assay type: in vivo, mouse; details: for state of the fur (coat score) / grooming latency: 10 mg/kg/day i.p.; for weight loss induced by stress: data not shown
Protocol: The stress regimen used is a variant of the chronic mild stress procedures described by Willner et al. (Willner et al., 1992). Mice were subjected to various and repeated unpredictable stressors for a period of five weeks (Griebel et al., 2002). The different stressors used were: alterations of the bedding (repeated sawdust changing, removal of sawdust, damp sawdust, substitution of sawdust with 37° C. water); cage tilting (45°); predator sounds (15 min.); cage shift (mice were positioned in the empty cage of another male); light to dark or dark to light shifts (four light/dark successions of 30 min every 24 hours); reversal of the light/dark cycle. The fluoxetine treatment (10 mg/kg/day, i.p.) started at the beginning of the third week. The state of the coat was assessed at the end of the stress regimen (end of fifth week). The total score resulted from the sum of the score of seven different body parts: head, neck, dorsal coat, ventral coat, tail, forepaws and the hindpaws. A score of 0 was given for a well-groomed coat and 1 for a spoiled coat (see Griebel, 2002). The grooming latency was assessed at the end of the sixth week. This test consisted in squirting 200 μl of a 10% sucrose solution on the mouse's snout. The latency to start grooming was then recorded.
The CUS protocol consists of the sequential application of a number of stressors, presented in a varied and unpredictable manner during 5 weeks. The continued application of these stressors produces a deterioration in the state of the coat, an impaired grooming response, and weight loss (Griebel et al., 2002; Willner et al., 1992). ADs such as fluoxetine can reverse these stress-induced effects after chronic, but not acute, administration (Griebel et al., 2002; Willner et al., 1992).
Sham and irradiated mice were subjected to five weeks of CUS, beginning two weeks after the final X-ray dose, and half of the animals in each group were administered fluoxetine (10 mg/kg/day, i.p.) from weeks 3-6. The state of each animal's fur was assessed at the end of the stress period, and assigned a score based on observations from several body regions (see methods). Fluoxetine treatment was continued for one more week, after which we measured the latency to begin grooming following application of a sucrose solution to the head of each animal.

[4] = system: BrdU-positive cells within the SGZ and granule cell layer; experiment: Survival and phenotype of BrdU-positive cells 28 days after BrdU injection; assay type: in vivo, mouse; details: for BrdU-positive cells surviving 28 days after BrdU injection: chronic treatment
Protocol: as §1
To determine the fate of hippocampal cells labeled with BrdU following chronic treatment with either fluoxetine or vehicle, animals were allowed to survive for a period of four weeks after injection of BrdU. During this time fluoxetine oral treatment was suspended and animals were returned to tap water. Brain sections were co-labeled with antibodies raised against BrdU and either the mature neuronal marker NeuN or the astroglial marker GFAP. […] The percentage of BrdU-positive cells within the SGZ and granule cell layer that expressed NeuN was 70±2%, and the percentage of BrdU-positive cells that expressed GFAP was 15±3%. These proportions were not influenced by the antidepressant treatment, as previously reported (Malberg et al., 2000).
as §2

[5] = 5-HT1A knockout (-/-) mice, 28 days, vs vehicle
[6] = 28-day treatment via drinking water, compared to vehicle
[7] = wild type (+/+) mice, 28 days, vs vehicle
[8] = 5-day treatment via drinking water, compared to vehicle
[9] = X-irradiated animals, chronic treatment
[10] = sham (non-irradiated) animals, chronic treatment
[11] = four weeks after BrdU, chronic fluoxetine or vehicle, proportions not influenced by treatment

| SMILES | latency to feed (129/SvEv mice; [5]) | latency to feed (129/SvEv mice; [6]) | latency to feed (129/SvEv mice; [7]) | time by which steady serum levels had been achieved [2] [days] | latency to feed (129/SvEv mice; [8]) | latency to feed (129/SvEv mice; [9]) | latency to feed (129/SvEv mice; [10]) | BrdU-labeled cells in dentate gyrus ([1]; 5-HT1A receptor KO mice) | BrdU-labeled cells in dentate gyrus ([1]; wild type mice) | BrdU-positive cells surviving 28 days after BrdU injection ([4]; 5-HT1A receptor KO mice) | BrdU-positive cells surviving 28 days after BrdU injection ([4]; WT mice) | further results |
| --- | --- | --- | --- | --- | --- | --- | --- | --- | --- | --- | --- | --- |
| CCCN(CCC)C1CCc2cccc(O)c2C1 (stereo not shown) [8-OH-DPAT, 8-hydroxy-2-(di-n-propylamino) tetralin] |  |  |  |  |  |  |  |  |  |  |  | latency to feed (129/SvEv mice; 5-HT1A receptor KO mice, 28 days s.c. osmotic mini pumps, 1 mg/kg/day, vs sham): ineffective; latency to feed (129/SvEv mice; WT mice, 28 days s.c. osmotic mini pumps, 1 mg/kg/day, vs sham): significantly decreased; cell proliferation (BrdU-labeled cells in the SGZ) ([1]; 5-HT1A receptor KO mice, chronic treatment): not observed; cell proliferation (BrdU-labeled cells in the SGZ) ([1]; WT mice, chronic treatment): increase in cell proliferation |
| CNCCCN1c2ccccc2CCc2ccccc21 [desipramine, Desipramine] | effective | significant decreases | significantly decreased | ≤ 5 |  |  |  |  |  |  |  |  |
| CNCCC(Oc1ccc(C(F)(F)F)cc1)c1ccccc1 (stereo not shown) [fluoxetine, Fluoxetine] | insensitive | significant decreases | significantly decreased | ≤ 5 | had no effect | no such anxiolytic-like effect | significant reduction | had no effect | two-fold increase | not in KO | had an effect | cell proliferation in the SVZ [3]: had no effect; state of the fur (coat score) (BALB/c mice; irradiated animals): absent; weight loss induced by stress (BALB/c mice; irradiated animals): blocked this effect; grooming latency (BALB/c mice; irradiated mice): not in irradiated mice; state of the fur (coat score) (BALB/c mice; sham animals): significantly improved; weight loss induced by stress (BALB/c mice; sham animals): trend to reverse the weight loss; grooming latency (BALB/c mice; sham mice): decreased; increase in the number of BrdU positive cells in the DG ([1]; after either 11 or 28 days of treatment, vs vehicle): 60%; number of BrdU positive cells in the DG ([1]; animals treated for 5 days): had no effect; cell proliferation after irradiation ([1]; irradiated animals, chronic treatment): had no effect; cell proliferation in the SGZ ([1]; non-irradiated mice, chronic treatment): increased cell proliferation; percentage of BrdU-positive cells that expressed GFAP [4, 11]: 15±3%; percentage of BrdU-positive cells that expressed NeuN [4, 11]: 70±2% |
| NCCC(Oc1ccc(C(F)(F)F)cc1)c1ccccc1 (stereo not shown) [nor-fluoxetine] |  |  |  | ≤ 5 |  |  |  |  |  |  |  |  |
| CN(C)CCCN1c2ccccc2CCc2ccccc21 [imipramine, Imipramine] | effective | significant decreases | significantly decreased | ≤ 5 | had no effect | no such anxiolytic-like effect | significant reduction | significant increase | significant increase | effective | effective | increase in the number of BrdU positive cells (SGZ and GCL) ([1]; both genotypes (+/+ and 5-HT1A -/-), 4 weeks of treatment): ~2 fold |
| O=C(CCCN1CCC(O)(c2ccc(Cl)cc2)CC1)c1ccc(F)cc1 [Haloperidol] |  | ineffective |  |  |  |  |  |  |  |  |  |  |
